Experimental data published in patent US7183095B2, “Cell culture system for synthesis of infectious hepatitis C virus” (priority 2001, dated 2007).

Test system: HCV type 1a (pCV-H77C) in Huh-7 cells
Test: Cell surface expression of HCV envelope proteins E1 and E2 by flow cytometry (FACS) in transfected Huh-7 cells
Format: cell-based, hepatitis C virus
Conditions: Huh-7 cells transfected with type 1a pCVH77C and AR3126, interferon treatment
Procedure: Transfected or supernatant treated Huh-7 cells were stained with anti-E1 or anti-E2 antibodies using procedures similar to those described previously by Koka et al. A goat anti-mouse IgG1 antibody conjugated to PE was used for labeling of the primary antibody. Flow cytometric analyses were performed on a Becton-Dickinson FACSCAN.
Huh-7 cells (1×10^7) were transfected/co-transfected with plasmid DNA at 60–70% confluency in T-75 tissue culture flasks. In some experiments transfection was carried out in 6-well plates (3×10^6 cells per well and 2 μg of each plasmid). Ten μgs of each plasmid was added to 0.45 ml of serum-free RPMI and mixed with 180 μl of superfect transfection reagent from Quiagen. The mixture was incubated at room temperature for 10 min after which 3 ml of RPMI containing 10% fetal bovine serum was then added. The mixture was then layered on Huh-7 cells and incubated at 37° C. for 6 h. The cell culture medium was changed regularly until the cells were harvested for labeling with appropriate antibodies or RNA isolation.
Viral protein synthesis was monitored by assaying cell surface expression of viral envelope proteins E1 and E2 by fluorescent activated cell sorting (FACS). Cell surface expression of HCV E1 and E2 was determined by flow cytometry following a procedure as previously described. […]

Question: Which E1/E2 expression does the source give for gamma: interferon gamma here?
Answer: Its E1/E2 expression is “inhibited E1/E2 expression only marginally”.
